The test system of experiment [1] is rats. The note with it: acute icy infusion of oxytocin; cited from earlier work.
For experiment [2], the system named is Patients recently diagnosed with OSA. The experiment can be described thus: Intranasal oxytocin in patients recently diagnosed with OSA (polysomnography, sleep quality score). In kind it is in vivo, human. The following applies: 40 IU oxytocin intranasally about one hour prior to sleeping. The procedure: Patients recently diagnosed with OSA were recruited to test the effect of oxytocin administration on heart rate, apnea-hypopnea index, oxygen saturation, apnea duration, arousal index etc. The study is approved by the FDA (IND #120989). Patients were administered 40 IU of oxytocin intranasally about one hour prior to sleeping.
The following eight outcomes were compared in the same patients prior to and after administration with oxytocin: • basal heart rate before sleep (primary outcome) • mean changes in heart rate with apneic and hypopneic events (primary outcome) • apnea-hypopnea index (secondary outcome) • percentage of time spent by the patient with oxygen saturations: >90%, >80% but <90%, and <80% (secondary outcome) • duration of apneas • oxygen desaturation during apneas (expressed as adverse desaturations in percent oxygen) • numbers of arousals (expressed per hour) • sleep quality
The following information was recorded for each patient before and after the use of intranasal oxytocin:
• a. Basal heart rate before sleep • b. Apnea-hypopnea index • c. Mean changes in heart rate with apneic and hypopneic events • d. Percentage of time spent by the patient with oxygen saturations: >90%, >80% but <90%, and <80%. • e. Duration of apneas • f. Oxygen desaturation during apneas (expressed as adverse desaturations in percent oxygen) • g. Numbers of arousals (expressed per hour) • h. Sleep quality 3. Standard of care sleep study data using PSG: Polysomnography (PSG) monitors many body functions during sleep, including brain (EEG), eye movements (EOG), muscle activity or skeletal muscle activation (EMG), heart rhythm (ECG), respiratory airflow, thoracic and abdominal respiratory effort, body position, limb movement, and oxygen saturation using pulse oximetry. Recording and scoring was done according to the standards set by the American Academy of Sleep Medicine. 4. Sleep quality score: Patients were asked to rank their responses using the scale of 1-5 for a set of empirical factors: • 1—Strongly disagree • 2—Slightly disagree • 3—Neither agree nor disagree • 4—Slightly agree • 5—Strongly agree Empirical Factors: • I feel more refreshed than usual this morning • My quality of sleep last night was better than usual • I slept deeper than usual last night • I woke up fewer times than usual last night • I slept longer than usual last night • I feel better overall than usual this morning

Where [3] appears, read: same patients prior to and after administration.

“Also recorded” adds a separate entry of the source.

As for `CC[C@H](C)[C@@H]1NC(=O)[C@H](Cc2ccc(O)cc2)NC(=O)[C@@H](N)CSSC[C@@H](C(=O)N2CCC[C@H]2C(=O)N[C@@H](CC(C)C)C(=O)NCC(N)=O)NC(=O)[C@H](CC(N)=O)NC(=O)[C@H](CCC(N)=O)NC1=O` [oxytocin], in experiment [1], the “high-frequency activity in the electroencephalogram (EEG) within non-REMS” value is recorded as “augmented”; the “non-REMS and REMS” value was “transient reduction”; the sleep onset latency result is listed as “delayed”. Besides, in experiment [2] (setting [3]), the duration of apnea entry was “reduces”, the number of arousals/hour entry is given as “decreases; also recorded: reduces” and the oxygen desaturation result is given as “reduces”. Further, in experiment [2] (score on scale of 1-5 for empirical factors), the “sleep quality or sleep satisfaction” value was “improves”.
